Where two headings read alike, the source gives them in different places.
Columns and labels:
Cotton bollworms = assay: Test of insecticidal activity against cotton bollworms (pesticide mixed into feedstuff); settings: read-out: Mortalities (%) Cotton bollworms
Protocol: Method of testing against cotton bollworms: the pesticide is mixed into the feedstuff, i.e., 3 mL prepared solution is added into about 27 g freshly prepared feedstuff; thus, required concentration is obtained by diluting by 10 times.

Wheat sheath blight = assay: In vitro fungicidal activity, PDA colony diameter; format: cell-based; settings: read-out: Fungicidal activity (%) Wheat sheath blight
[1] = test system: Cercospora brown spot of peanut; assay: In vitro fungicidal activity, PDA colony diameter; format: cell-based; settings: 96 h, read-out: Fungicidal activity (%) Cercospora brown spot of peanut
[2] = test system: bean aphides (Aphis laburni Kaltenbach); assay: Test of insecticidal activity against aphides (leaf immersion, checked after 96 h); settings: 96 h; for mortality at 10 mg/kg / mortality at 100 mg/kg / mortality at 600 mg/kg / mortality at 2.5 mg/kg / mortality at 5 mg/kg: Aphis, read-out: Mortalities (%) against aphides
Sclerotinia rot of colza = assay: In vitro fungicidal activity, PDA colony diameter; format: cell-based; settings: 96 h, read-out: Fungicidal activity (%) Sclerotinia rot of colza
[3] = test system: a variety of pathogenic fungi; assay: In vitro fungicidal activity, summary over the tested fungi; format: cell-based; settings: 50 mg/kg
Protocol: Here, the test is described in an example of Alternaria solani; it can be replaced by other fungi.
In vitro testing method: Alternaria solani is inoculated to a PDA culture medium and cultured for 7 days, a fungus dish with a diameter of […] is prepared on the periphery of the colony with a punch and inoculated to a PDA culture medium that contains pesticide at a concentration of 50 mg/kg and a PDA culture medium that doesn't contain the pesticide, and are cultured for 4 days respectively; then, the colony diameters are measured, and the inhibition percentages of the pesticides are calculated by comparing with the control sample.

Maize borers = assay: Test of insecticidal activity against maize borers (leaf immersion); settings: read-out: Mortalities (%) Maize borers
Rice bakanae disease = assay: In vitro fungicidal activity, PDA colony diameter; format: cell-based; settings: read-out: Fungicidal activity (%) Rice bakanae disease
Tomato early blight = assay: In vitro fungicidal activity, PDA colony diameter; format: cell-based, Alternaria solani; settings: read-out: Fungicidal activity (%) Tomato early blight
Rice sheath blight = assay: In vitro fungicidal activity, PDA colony diameter; format: cell-based; settings: read-out: Fungicidal activity (%) Rice sheath blight
Potato late blight = assay: microbe, parasite or virus in culture; format: cell-based; settings: Phytophthora infestans, 96 h, read-out: Fungicidal activity (%) Potato late blight
Watermelon anthracnose = assay: In vitro fungicidal activity, PDA colony diameter; format: cell-based; settings: read-out: Fungicidal activity (%) Watermelon anthracnose
Apple ring rot = assay: In vitro fungicidal activity, PDA colony diameter; format: cell-based; settings: inhibition of colony diameter
Summary of the method: (§1)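 Mycelial plugs cut from the edge of 7-day PDA colonies placed on PDA containing 50 mg/kg compound or on compound-free PDA, grown 4 days. Colony diameters measured; percent inhibition calculated against untreated control.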

[4] = test system: Capsicum phytophthora blight; assay: In vitro fungicidal activity, PDA colony diameter; format: cell-based; settings: 96 h
Summary of the method: as §1

Cucumber fusarium wilt = assay: In vitro fungicidal activity, PDA colony diameter; format: cell-based; settings: 96 h, read-out: Fungicidal activity (%) Cucumber fusarium wilt
[5] = test system: mosquito larvae (Culer pipiens pallens); assay: Test of insecticidal activity against mosquito larvae (checked after 24 h); settings: 24 h, read-out: Mortalities (%) against mosquito larvae
Protocol: Method of testing against mosquito larvae: the tested mosquito larvae are Culer pipiens pallens, a normal colony fed indoor. About 5 mg compound to be tested is weighed and loaded into a penicillin vial, 5 mL acetone (or an appropriate solvent) is added into the vial, and the vial is oscillated to dissolve the compound; thus, 1,000 ppm mother liquid is obtained. 1 mL mother liquid is weighed and added into a 100 mL beaker filled with 89 mL water, 10 mosquito larvae in the early stage of the 4th instar together with 10 mL feeding solution are poured into the beaker; thus, the concentration of the pesticide solution is 10 ppm (the pesticide solutions with other concentrations are attained by diluting the mother liquid by corresponding times). […] Water solution that contains 0.5 mL test solvent is used as a blank sample.

Wheat head blight = assay: whole plant or invertebrate; format: cell-based; settings: Triticum aestivum, read-out: Fungicidal activity (%) Wheat head blight
[6] = test system: Corn southern leaf blight; assay: In vitro fungicidal activity, PDA colony diameter; format: cell-based; settings: read-out: Fungicidal activity (%) Corn southern leaf blight
Armyworms = assay: Test of insecticidal activity against armyworms (leaf immersion); settings: 600 mg/kg, 3-4 days
[7] = 50 mg/kg, inhibition of colony diameter

Row | SMILES | mortality at 600 mg/kg (Cotton bollworms) | inhibition at 50 mg/kg (Wheat sheath blight; [7]) | inhibition of growth at 50 mg/kg [1, 7] | mortality at 10 mg/kg [2] | mortality at 100 mg/kg [2] | mortality at 600 mg/kg [2] | inhibition of growth at 50 mg/kg (Sclerotinia rot of colza; [7]) | mortality at 600 mg/kg (Maize borers) | inhibition at 50 mg/kg (Rice bakanae disease; [7]) | inhibition at 50 mg/kg (Tomato early blight; [7]) | inhibition at 50 mg/kg (Rice sheath blight; [7]) | inhibition of growth at 50 mg/kg (Potato late blight) | inhibition at 50 mg/kg (Watermelon anthracnose; [7]) | inhibition at 50 mg/kg (Apple ring rot) | inhibition of growth at 50 mg/kg [4] | inhibition of growth at 50 mg/kg (Cucumber fusarium wilt; [7]) | mortality at 10 mg/kg [5] | inhibition at 50 mg/kg (Wheat head blight) | inhibition at 50 mg/kg [6, 7] | Mortalities (%) Armyworms (Armyworms) | further results
1 | CCCCS(=O)(=O)NN1CC(C)=NNC1=O [Ia-4, N-(6-methyl-3-oxo-2,3-dihydro-1,2,4-triazin-4(5H)-yl)-n-butylsulfonamide] | 0% | 70.5% | 15.8% | 20% | 70% | 85% | 48.3% | 5% | 38.9% | 14.3% | 34.9% | 40.7% | 25% | 31% | 46.9% | 0% | 20% | 6.7% | 33.3% | 5% | fungicidal activity against a variety of pathogenic fungi [3]: outstanding fungicidal activity
2 | CC1=NNC(=O)N(NS(=O)(=O)c2ccc(C)cc2)C1 [Ia-12, 4-methyl-N-(6-methyl-3-oxo-2,3-dihydro-1,2,4-triazin-4(5H)-yl)-benzenesulfonamide] | 30% | 72.7% | 42.1% | 100% | 100% | 100% | 70% | 10% | 27.8% | 33.3% | 27% | 29.6% | 33.3% | 41.4% | 40.8% | 25% | 100% | 13.3% | 33.3% | 15% | mortality at 2.5 mg/kg [2]: 30%; mortality at 5 mg/kg [2]: 100%; fungicidal activity against a variety of pathogenic fungi [3]: outstanding fungicidal activity; mortality at 2 mg/kg [5]: 10%; mortality at 5 mg/kg [5]: 100%
3 | CC1=NNC(=O)N(N(S(=O)(=O)c2ccccc2)S(=O)(=O)c2ccccc2)C1 [Ib-5, N-(6-methyl-3-oxo-2,3-dihydro-1,2,4-triazin-4(5H)-yl)-N-(benzenesulfonyl)-benzenesulfonamide] | 20% | 68.2% | 36.8% | 50% | 90% | 100% | 40% | 25% | – | 38.1% | 27% | 22.2% | 20.8% | 44.8% | 42.9% | 15% | 60% | 10% | 25% | 40% | mortality at 5 mg/kg [2]: 10%; fungicidal activity against a variety of pathogenic fungi [3]: outstanding fungicidal activity; inhibition at 50 mg/kg (Rice bakanae disease): 22.2%
4 | CC1=NNC(=O)N(N(S(=O)(=O)c2ccc([N+](=O)[O-])cc2)S(=O)(=O)c2ccc([N+](=O)[O-])cc2)C1 [Ib-7, N-(6-methyl-3-oxo-2,3-dihydro-1,2,4-triazin-4(5H)-yl)-4-nitro-N-(4-nitrobenzenesulfonyl)-benzenesulfonamide] | 40% | – | – | 25% | 85% | 100% | – | 15% | – | – | – | 25.9% | – | 0% | 36.7% | – | 60% | 23.3% | – | 20% | inhibition at 50 mg/kg (Wheat sheath blight): 59.1%; inhibition of growth at 50 mg/kg [1]: 21.1%; inhibition of growth at 50 mg/kg (Sclerotinia rot of colza): 30%; inhibition at 50 mg/kg (Rice bakanae disease): 44.4%; inhibition at 50 mg/kg (Tomato early blight): 23.8%; inhibition at 50 mg/kg (Rice sheath blight): 27%; inhibition at 50 mg/kg (Watermelon anthracnose): 20.8%; inhibition of growth at 50 mg/kg (Cucumber fusarium wilt): 5%; inhibition at 50 mg/kg [6]: 12.5%
5 | CC(=O)Nc1ccc(S(=O)(=O)N(N2CC(C)=NNC2=O)S(=O)(=O)c2ccc(NC(C)=O)cc2)cc1 [Ib-8, 4-acetamido-N-(6-methyl-3-oxo-2,3-dihydro-1,2,4-triazin-4(5H)-yl)-N-(4-acetamidobenzenesulfonyl)-benzenesulfonamide] | 15% | 45.5% | 15.8% | – | 50% | 90% | 33.3% | 15% | 22.2% | 23.8% | 27% | 29.6% | 12.5% | 27.6% | 20.4% | 0% | 30% | 0% | 16.7% | 20% | –
6 | CC1=NNC(=O)N(N(S(=O)(=O)c2cccnc2)S(=O)(=O)c2cccnc2)C1 [Ib-9, N-(6-methyl-3-oxo-2,3-dihydro-1,2,4-triazin-4(5H)-yl)-N-(pyrid-3-yl-sulfonyl)pyridyl-3-sulfonamide] | 5% | 15.1% | 19.2% | 20% | 80% | 95% | 12.5% | 10% | 0% | 25% | 26.8% | 14.3% | 3.1% | 21.4% | 11.5% | 7.7% | 10% | 21.2% | 5.6% | 15% | –
7 | CC1=NNC(=O)N(/N=C/c2cccnc2)C1 [Pymetrozine, reference compound] | 20% | 63.6% | 15.8% | 90% | 100% | 100% | 31.7% | 35% | 33.3% | 23.8% | 19% | 22.2% | 16.7% | 27.6% | 36.7% | 5% | 100% | 13.3% | 16.7% | 50% | Mortalities (%) against aphides ([2]; 2.5 mg/kg): no insecticidal activity; mortality at 2.5 mg/kg [2]: 0%; mortality at 5 mg/kg [2]: 30%; mortality at 5 mg/kg [5]: 40%

Reference: patent US11203577B2, “Sulfonyl-structure-containing triazinone derivatives, their preparation methods and their uses in insect killing and/or bacterium killing” (Nankai University, priority 2017, dated 2021)
